# Assay results taken from ChEMBL document CHEMBL3751705, “Synthesis and antituberculosis activity of indole-pyridine derived hydrazides, hydrazide-hydrazones, and thiosemicarbazones” (Bioorg Med Chem Lett, 2016).
# Tested on: Mycobacterium tuberculosis
# Experiment: Antituberculosis activity against isoniazid-resistant Mycobacterium tuberculosis CN-40 by microdilution method
# Type: functional
row,SMILES,MIC
1,CCOC(=O)c1[nH]c2ccc(Cl)cc2c1/C=N\NC(=O)c1ccncc1,2 µg/mL
2,CCOC(=O)c1[nH]c2ccccc2c1/C=N\NC(=O)c1ccncc1,2 µg/mL
3,Cc1ccc2[nH]c(C(=O)O)c(/C=N\NC(=O)c3ccncc3)c2c1,4 µg/mL
4,NNC(=O)c1ccncc1 [ISONIAZID],20 µg/mL
5,CC(=O)n1cc(NNC(=O)c2cc[n+]([O-])cc2)c2ccccc21,10 µg/mL
6,CCOC(=O)c1[nH]c2ccccc2c1CNNC(=O)c1cc[n+]([O-])cc1,10 µg/mL
7,O=C(N/N=C\c1c[nH]c2ccccc12)c1cc[n+]([O-])cc1,10 µg/mL
8,CC(=O)n1cc(NNC(=O)c2ccc[n+]([O-])c2)c2ccccc21,10 µg/mL
9,NNC(=O)c1ccc[n+]([O-])c1,> 20 µg/mL
10,CCOC(=O)c1[nH]c2ccc(C)cc2c1/C=N\NC(=O)c1ccncc1,2 µg/mL
11,CCOC(=O)c1[nH]c2ccccc2c1CNNC(=O)c1ccncc1,10 µg/mL
12,O=C(NNCc1c[nH]c2ccccc12)c1ccncc1,10 µg/mL
13,O=C(N/N=C\c1c[nH]c2ccccc12)c1ccncc1,10 µg/mL
14,NNC(=O)c1cccnc1 [NICOTINIC ACID HYDRAZIDE],> 20 µg/mL
15,CCOC(=O)c1[nH]c2ccc(Cl)cc2c1CNNC(=O)c1ccncc1,10 µg/mL
16,CC(=O)n1cc(NNC(=O)c2ccncc2)c2ccccc21,2 µg/mL
17,CCOC(=O)c1[nH]c2ccc(C)cc2c1/C=N/NC(N)=S,2 µg/mL
18,CCOC(=O)c1[nH]c2ccccc2c1/C=N\NC(=O)c1cc[n+]([O-])cc1,10 µg/mL
19,NNC(=O)c1cc[n+]([O-])cc1,> 20 µg/mL
20,CCOC(=O)c1[nH]c2ccc(C)cc2c1CNNC(=O)c1ccncc1,10 µg/mL
